From PMC8159961, “Exploring protein hotspots by optimized fragment pharmacophores” (Nature Communications, 2021)

What was measured:
human 5-HT7b receptor = target: T1, human 5-HT7b receptor (Homo sapiens, UniProt P34969); experiment: GPCR radioligand binding assay, [3H]-5-CT displacement, HEK293 membranes; settings: for 5-HT7 % Inhibition by plate position: 10 µM; for %inh 5-HT7 exp_1: replicate exp_1; for %inh 5-HT7 exp_2: replicate exp_2; for %inh 5-HT7 average: average of exp_1 and exp_2
T1 construct: expressed in transfected cells

human 5-HT6 receptor = target: T2, human 5-HT6 receptor (Homo sapiens, UniProt P50406); experiment: GPCR radioligand binding assay, [3H]-LSD displacement, HEK293 membranes; settings: for 5-HT6 % Inhibition by plate position: 10 µM; for %inh 5-HT6 average: average of exp_1 and exp_2; for %inh 5-HT6 corrected*: average, values below 0 and above 100% were set as 0 and 100; for %inh 5-HT6 exp_1: replicate exp_1; for %inh 5-HT6 exp_2: replicate exp_2
T2 construct: expressed in transfected cells

human 5-HT1A receptor = target: T3, human 5-HT1A receptor (Homo sapiens, UniProt P08908); experiment: GPCR radioligand binding assay, [3H]-8-OH-DPAT displacement, HEK293 membranes; settings: for %inh 5-HT1A average: average of exp_1 and exp_2; for %inh 5-HT1A corrected*: average, values below 0 and above 100% were set as 0 and 100; for %inh 5-HT1A exp_1: replicate exp_1; for %inh 5-HT1A exp_2: replicate exp_2; for 5-HT1A % Inhibition by plate position: 10 µM
T3 construct: expressed in transfected cells
T3 sequence (P08908 1-422): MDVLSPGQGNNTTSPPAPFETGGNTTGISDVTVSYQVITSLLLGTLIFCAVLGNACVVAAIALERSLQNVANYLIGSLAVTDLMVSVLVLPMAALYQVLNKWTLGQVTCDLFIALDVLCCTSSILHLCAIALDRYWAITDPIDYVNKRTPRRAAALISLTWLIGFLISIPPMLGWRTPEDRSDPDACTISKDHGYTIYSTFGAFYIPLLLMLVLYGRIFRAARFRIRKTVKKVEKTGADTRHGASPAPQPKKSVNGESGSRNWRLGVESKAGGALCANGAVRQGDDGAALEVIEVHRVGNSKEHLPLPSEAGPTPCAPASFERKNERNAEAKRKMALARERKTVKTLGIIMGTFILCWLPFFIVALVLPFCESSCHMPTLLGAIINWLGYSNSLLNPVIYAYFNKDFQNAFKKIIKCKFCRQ

T1 sequence (P34969 1-432): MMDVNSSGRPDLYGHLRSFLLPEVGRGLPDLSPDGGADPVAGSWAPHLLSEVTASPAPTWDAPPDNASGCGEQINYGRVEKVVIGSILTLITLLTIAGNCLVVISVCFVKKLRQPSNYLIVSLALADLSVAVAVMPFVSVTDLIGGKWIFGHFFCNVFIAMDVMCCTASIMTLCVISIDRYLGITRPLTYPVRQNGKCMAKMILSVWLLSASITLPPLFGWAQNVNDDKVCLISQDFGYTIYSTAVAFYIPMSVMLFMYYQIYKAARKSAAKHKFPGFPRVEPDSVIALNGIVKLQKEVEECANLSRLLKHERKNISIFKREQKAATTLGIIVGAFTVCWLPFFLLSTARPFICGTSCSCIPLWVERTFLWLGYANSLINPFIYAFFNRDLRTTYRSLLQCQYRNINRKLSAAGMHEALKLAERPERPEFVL
T2 sequence (P50406 whole entry): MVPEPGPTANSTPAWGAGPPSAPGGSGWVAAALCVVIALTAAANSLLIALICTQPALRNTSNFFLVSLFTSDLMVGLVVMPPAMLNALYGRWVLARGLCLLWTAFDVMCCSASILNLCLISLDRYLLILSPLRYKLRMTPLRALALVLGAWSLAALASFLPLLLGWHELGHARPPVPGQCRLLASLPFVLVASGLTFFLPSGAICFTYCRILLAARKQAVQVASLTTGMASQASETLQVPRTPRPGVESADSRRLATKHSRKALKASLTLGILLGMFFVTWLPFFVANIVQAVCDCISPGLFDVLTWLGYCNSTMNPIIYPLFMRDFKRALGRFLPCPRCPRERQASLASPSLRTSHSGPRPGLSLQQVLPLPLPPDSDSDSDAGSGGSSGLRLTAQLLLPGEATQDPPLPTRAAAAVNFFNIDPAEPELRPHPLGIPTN

| Compound | 5-HT7 % Inhibition by plate position (human 5-HT7b receptor) | %inh 5-HT7 exp_1 (human 5-HT7b receptor) | %inh 5-HT7 exp_2 (human 5-HT7b receptor) | 5-HT6 % Inhibition by plate position (human 5-HT6 receptor) | %inh 5-HT6 average (human 5-HT6 receptor) | %inh 5-HT6 corrected* (human 5-HT6 receptor) | %inh 5-HT6 exp_1 (human 5-HT6 receptor) | %inh 5-HT6 exp_2 (human 5-HT6 receptor) | %inh 5-HT1A average (human 5-HT1A receptor) | %inh 5-HT1A corrected* (human 5-HT1A receptor) | %inh 5-HT1A exp_1 (human 5-HT1A receptor) | %inh 5-HT1A exp_2 (human 5-HT1A receptor) | %inh 5-HT7 average (human 5-HT7b receptor) | 5-HT1A % Inhibition by plate position (human 5-HT1A receptor) |
| --- | --- | --- | --- | --- | --- | --- | --- | --- | --- | --- | --- | --- | --- | --- |
| CCN(CC)c1cccc(C)c1 [E4] | 7.56% | 12% | 2.81% | 31% | 31% | 31% | 31% | 32% | 8.49% | 8.49% | 13% | 4% |  |  |
| O=C(CN1CCNCC1)c1ccccc1 [E5] | 8% | 14% | 3% | 49% | 49% | 49% | 45% | 54% | 6% | 6% | 9.52% | 3% |  |  |
| Clc1ccc2nnnn2n1 [E6] | 0% | -5% | -20% | 35% | 35% | 35% | 38% | 31% | 3.55% | 3.55% | 3.18% | 4% | -13% |  |
| c1cnc2c(c1)NCCC2 [E7] | 0% | 6% | -14% | 28% | 28% | 28% | 28% | 29% | 12% | 12% | 15% | 9% | -3.73% |  |
| COc1cccc(NC2=NCCCCC2)c1 [E8] | 0% | 3.36% | -13% | 14% | 14% | 14% | 17% | 12% | 11% | 11% | 11% | 11% | -5% |  |
| N#Cc1ccc(C(=O)N2CCOCC2)cc1 [E10] | 9% | 10% | 7% | 37% | 37% | 37% | 33% | 41% | -13% |  | -3% | -23% |  | 0% |
| Oc1ccc(C2CCNCC2)cc1 [E11] | 11% | 10% | 12% | 43% | 43% | 43% | 44% | 42% | 5.37% | 5.37% | 3% | 8% |  |  |
| COC(=O)c1c(C)nc(C2CC2)[nH]c1=O [F1] | 23% | 23% | 22% | 41% | 41% | 41% | 38% | 44% | 16% | 16% | 17% | 15% |  |  |
| N#CC1CCS(=O)(=O)C1 (stereo not shown) [F2] | 20% | 21% | 19% | 22% | 22% | 22% | 22% | 22% | -0.934% |  | 12% | -14% |  | 0% |
| N#CCCN1CCc2ccccc21 [F4] | 3% | 1.81% | 4.42% | 23% | 23% | 23% | 26% | 20% | -7% |  | -1.29% | -12% |  | 0% |
| O=C(O)c1cccc(Nc2ncccn2)c1 [F5] | 12% | 11% | 13% | 50% | 50% | 50% | 58% | 42% | 10% | 10% | 9% | 11% |  |  |
| O=C(Nc1ccccc1)C1CC1 [F6] | 0% | -1.55% | -4% | 41% | 41% | 41% | 40% | 42% | 12% | 12% | 10% | 14% | -2.69% |  |
| Oc1nnc(-c2ccccc2)o1 [F7] | 1% | -12% | 14% | 14% | 14% | 14% | 15% | 14% | -4% |  | 1.6% | -10% |  | 0% |
| Cc1nccn1Cc1cccc(C#N)c1 [F8] | 9% | 14% | 3.57% | 41% | 41% | 41% | 40% | 42% | 10% | 10% | 7% | 13% |  |  |
| CC(CN)N1CCc2sccc2C1 (stereo not shown) [F9] | 8% | 13% | 3.54% | 15% | 15% | 15% | 14% | 17% | 33% | 33% | 30% | 36% |  |  |
| NCC1(c2ccccc2)CCOCC1 [F10] | 6% | -0.903% | 13% | 23% | 23% | 23% | 20% | 25% | 11% | 11% | 10% | 12% |  |  |
